According to patent US10626112B2, “Heterocyclic sulfonamide derivative and medicine comprising same” (EA PHARMA CO., LTD., priority 2014, dated 2020):

target: human TRPA1 (Homo sapiens (Human), UniProt O75762); assay: Measurement of TRPA1 antagonist activity (1): intracellular calcium increase; assay type: cell-based; settings: 293T cells transfected with human TRPA1 expression plasmid; allylisothiocyanate 20 μM stimulation; intracellular calcium fluorescence; read-out: hTRPA1 IC50
How it was run: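 Calcium-flux readout of TRPA1 block: compound given 10 min before 20 μM (final) allylisothiocyanate, fluorescence tracked 5 min. Cells were 293T transiently expressing human TRPA1, dye-loaded 1 hr in HBSS, 20 mM HEPES, pH 7.2. Inhibition scaled between agonist-only and buffer-only responses; IC50 by sigmoid fitting.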

Chain of human TRPA1 (O75762 whole entry): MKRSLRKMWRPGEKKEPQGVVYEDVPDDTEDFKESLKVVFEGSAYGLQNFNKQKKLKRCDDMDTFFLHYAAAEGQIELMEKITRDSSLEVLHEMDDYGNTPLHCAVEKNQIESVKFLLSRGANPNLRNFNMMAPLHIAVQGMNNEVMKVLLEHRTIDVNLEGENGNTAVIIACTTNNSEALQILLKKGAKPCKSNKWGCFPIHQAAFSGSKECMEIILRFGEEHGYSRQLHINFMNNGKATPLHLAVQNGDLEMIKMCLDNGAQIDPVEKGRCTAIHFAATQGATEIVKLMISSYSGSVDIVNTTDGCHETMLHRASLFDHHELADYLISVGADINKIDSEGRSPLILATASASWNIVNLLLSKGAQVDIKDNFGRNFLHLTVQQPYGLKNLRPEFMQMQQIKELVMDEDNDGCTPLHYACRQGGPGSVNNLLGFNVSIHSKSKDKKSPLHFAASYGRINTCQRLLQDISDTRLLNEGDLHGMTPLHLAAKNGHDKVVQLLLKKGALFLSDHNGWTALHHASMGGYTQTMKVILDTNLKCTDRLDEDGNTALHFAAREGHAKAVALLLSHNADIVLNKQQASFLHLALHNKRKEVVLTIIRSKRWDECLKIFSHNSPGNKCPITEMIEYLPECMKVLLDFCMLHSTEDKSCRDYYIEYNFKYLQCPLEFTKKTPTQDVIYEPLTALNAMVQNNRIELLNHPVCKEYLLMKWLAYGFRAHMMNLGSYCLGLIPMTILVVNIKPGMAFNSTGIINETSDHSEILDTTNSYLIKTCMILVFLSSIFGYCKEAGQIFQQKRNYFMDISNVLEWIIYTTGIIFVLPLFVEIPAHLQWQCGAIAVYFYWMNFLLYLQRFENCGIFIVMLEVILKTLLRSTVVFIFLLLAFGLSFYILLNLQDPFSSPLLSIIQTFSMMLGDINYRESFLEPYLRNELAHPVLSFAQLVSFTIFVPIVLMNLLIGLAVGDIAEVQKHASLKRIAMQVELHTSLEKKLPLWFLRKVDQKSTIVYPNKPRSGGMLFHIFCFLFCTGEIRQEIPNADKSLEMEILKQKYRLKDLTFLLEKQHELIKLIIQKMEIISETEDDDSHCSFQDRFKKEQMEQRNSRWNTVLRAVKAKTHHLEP

`O=C(NCc1cccc(-c2ccc(C(F)(F)F)cc2)n1)[C@@H]1CCCN1S(=O)(=O)c1cc2cc(F)ccc2o1` [Example 144, (2S)-1-(5-fluorobenzofuran-2-yl)sulfonyl-N-[[6-[4-(trifluoromethyl)phenyl]-2-pyridyl]methyl]pyrrolidine-2-carboxamide] was tested. Which IC50 did it give?
The IC50 was 47 nM.

Which IC50 does the source give for `O=C(NCc1cc(C(F)(F)F)ccc1Cl)[C@@H]1CCCN1S(=O)(=O)c1cc2ccccc2o1` [Example 67, (2S)-1-(benzofuran-2-ylsulfonyl)-N-[[2-chloro-5-(trifluoromethyl)phenyl]methyl]-pyrrolidine-2-carboxamide] here?
The IC50 was 9.7 nM.

For `O=C(NCc1cccc(OCC2CCOC2)c1)[C@@H]1CCCN1S(=O)(=O)c1cc2cc(F)ccc2o1` (stereo partly drawn) [Example 32, (2S)-1-(5-fluorobenzofuran-2-yl)sulfonyl-N-[[3-(tetrahydrofuran-3-ylmethoxy)phenyl]-methyl]pyrrolidine-2-carboxamide], which IC50 is on record?
Its IC50 is 31 nM.

For `O=C(NCc1ccc(Oc2cccc(C(F)(F)F)c2)cc1)[C@@H]1CCCN1S(=O)(=O)c1cc2cnccc2o1` [Example 268, (2S)-1-furo[3,2-c]pyridin-2-ylsulfonyl-N-[[4-[3-(trifluoromethyl)phenoxy]-phenyl]methyl]pyrrolidine-2-carboxamide], which IC50 is on record?
The IC50 was 29 nM.

With `O=C(NCc1ccnc(-c2ccc(C(F)(F)F)cc2)c1)[C@@H]1CCCN1S(=O)(=O)c1cc2ccc(F)cc2o1` [Example 220, (2S)-1-(6-fluorobenzofuran-2-yl)sulfonyl-N-[[2-[4-(trifluoromethyl)phenyl]-4-pyridyl]methyl]pyrrolidine-2-carboxamide] as the compound, how does the IC50 read?
The IC50 was 54 nM.

How did the IC50 turn out when `N#Cc1cccc(-c2cc(CNC(=O)[C@@H]3CCCN3S(=O)(=O)c3cc4ccccc4o3)ccn2)c1` [Example 118, (2S)-1-(benzofuran-2-ylsulfonyl)-N-[[2-(3-cyanophenyl)-4-pyridyl]methyl]pyrrolidine-2-carboxamide] was run?
The IC50 was 260 nM.

Which IC50 does the source give for `O=C(NCc1ccnc(-c2ccc(C(F)(F)F)cc2)c1)[C@@H]1CCCN1S(=O)(=O)c1cc2ccccc2o1` [Example 115, (2S)-1-(benzofuran-2-ylsulfonyl)-N-[[2-[4-(trifluoromethyl)phenyl]-4-pyridyl]methyl]pyrrolidine-2-carboxamide] here?
Its IC50 is 2.4 nM.

Which IC50 does the source give for `O=C(NCc1cncc(-c2ccc(C(F)(F)F)cc2)c1)[C@@H]1CCCN1S(=O)(=O)c1cc2cc(F)ccc2o1` [Example 139, (2S)-1-(5-fluorobenzofuran-2-yl)sulfonyl-N-[[5-[4-(trifluoromethyl)phenyl]-3-pyridyl]methyl]pyrrolidine-2-carboxamide] here?
The IC50 was 3 nM.

`O=C(NCc1ccnc(-c2ccc(F)cc2O)c1)[C@@H]1CCCN1S(=O)(=O)c1cc2ccccc2o1` [Example 121, (2S)-1-(benzofuran-2-ylsulfonyl)-N-[[2-(4-fluoro-2-hydroxy-phenyl)-4-pyridyl]methyl]pyrrolidine-2-carboxamide] was tested. Which IC50 did it give?
Its IC50 is 32 nM.

With `C[C@H](NS(=O)(=O)c1cc2cc(F)ccc2o1)C(=O)NCc1cc(OC(F)(F)F)ccc1F` [Example 73, (2S)-2-[(5-fluorobenzofuran-2-yl)sulfonylamino]-N-[[2-fluoro-5-(trifluoromethoxy)phenyl]methyl]-propanamide] as the compound, how does the IC50 read?
Its IC50 is 160 nM.

Which IC50 does the source give for `O=C(NCc1cccc(-c2ccc(OC(F)(F)F)cc2)c1)[C@@H]1CCCN1S(=O)(=O)c1cc2cc(F)ccc2o1` [Example 158, (2S)-1-(5-fluorobenzofuran-2-yl)sulfonyl-N-[[3-[4-(trifluoromethoxy)phenyl]-phenyl]methyl]pyrrolidine-2-carboxamide] here?
Its IC50 is 0.83 nM.

How did the IC50 turn out when `O=C(NCc1cc(-c2ccc(C(F)(F)F)cn2)ccn1)[C@@H]1[C@@H](O)CCN1S(=O)(=O)c1cc2cc(F)ccc2o1` [Example 228, (2S,3S)-1-(5-fluorobenzofuran-2-yl)sulfonyl-3-hydroxy-N-[[4-[5-(trifluoromethyl)-2-pyridyl]-2-pyridyl]methyl]pyrrolidine-2-carboxamide] was run?
Its IC50 is 32 nM.

`O=C(NCc1cncc(-c2ccc(OC(F)(F)F)cc2)c1)[C@@H]1CCCN1S(=O)(=O)c1cc2cc(F)ccc2o1` [Example 279, (2S)-1-(5-fluorobenzofuran-2-yl)sulfonyl-N-[[5-[4-(trifluoromethoxy)phenyl]-3-pyridyl]methyl]pyrrolidine-2-carboxamide] was tested. Which IC50 did it give?
The IC50 was 2.8 nM.

Which IC50 does the source give for `O=C(NCc1cc(-c2ccc(C(F)(F)F)cn2)ccn1)[C@@H]1C[C@@H](c2ccccc2)CN1S(=O)(=O)c1cc2cc(F)ccc2o1` [Example 260, (2S,4S)-1-(5-fluorobenzofuran-2-yl)sulfonyl-4-phenyl-N-[[4-[5-(trifluoromethyl)-2-pyridyl]-2-pyridyl]methyl]pyrrolidine-2-carboxamide] here?
Its IC50 is 51 nM.

Which IC50 does the source give for `C[C@H](NS(=O)(=O)c1cc2cc(F)ccc2o1)C(=O)NCc1cncc(-c2ccc(C(F)(F)F)nc2)c1` [Example 245, (2S)-2-[(5-fluorobenzofuran-2-yl)sulfonylamino]-N-[[5-[6-(trifluoromethyl)-3-pyridyl]-3-pyridyl]methyl]propanamide] here?
Its IC50 is 120 nM.

For `C[C@H](NS(=O)(=O)c1cc2ccccc2o1)C(=O)NCc1cc(-c2ccc(C(F)(F)F)nc2)ccn1` [Example 105, (2S)-2-(benzofuran-2-ylsulfonylamino)-N-[[4-[6-(trifluoromethyl)-3-pyridyl]-2-pyridyl]methyl]propanamide], which IC50 is on record?
Its IC50 is 68 nM.

`O=C(NCc1cccc(OCc2ccccn2)c1)[C@@H]1CCCN1S(=O)(=O)c1cc2cc(F)ccc2o1` [Example 15, (2S)-1-(5-fluorobenzofuran-2-yl)sulfonyl-N-[[3-(2-pyridylmethoxy)phenyl]-methyl]pyrrolidine-2-carboxamide] was tested. Which IC50 did it give?
The IC50 was 100 nM.

`C[C@H](NS(=O)(=O)c1cc2cc(F)ccc2o1)C(=O)NCc1cc(-c2ccc(C(F)(F)F)nn2)ccn1` [Example 244, (2S)-2-[(5-fluorobenzofuran-2-yl)sulfonylamino]-N-[[4-[6-(trifluoromethyl)pyridazin-3-yl]-2-pyridyl]methyl]propanamide] was tested. Which IC50 did it give?
Its IC50 is 44 nM.

`CNc1ccccc1-c1cc(CNC(=O)[C@@H]2CCCN2S(=O)(=O)c2cc3ccccc3o2)ccn1` [Example 292, (2S)-1-(benzofuran-2-ylsulfonyl)-N-[[2-[2-(methylamino)phenyl]-4-pyridyl]methyl]pyrrolidine-2-carboxamide] was tested. Which IC50 did it give?
The IC50 was 580 nM.

`O=C(NCc1cccc(OCc2cccs2)c1)[C@@H]1CCCN1S(=O)(=O)c1cc2ccccc2o1` [Example 5, (2S)-1-(benzofuran-2-ylsulfonyl)-N-[[3-(2-thienylmethoxy)phenyl]methyl]pyrrolidine-2-carboxamide] was tested. Which IC50 did it give?
The IC50 was 12 nM.

How did the IC50 turn out when `O=C(NCc1cc(-c2ccc(C(F)(F)F)cn2)ccn1)[C@@H]1c2ccccc2CN1S(=O)(=O)c1cc2cc(F)ccc2o1` (racemic) [Example 264, (rac)-2-(5-fluorobenzofuran-2-yl)sulfonyl-N-[[4-[5-(trifluoromethyl)-2-pyridyl]-2-pyridyl]methyl]isoindoline-1-carboxamide] was run?
The IC50 was 12 nM.

How did the IC50 turn out when `O=C(NCc1ccnc(-c2ccc(C(F)(F)F)cc2)c1)[C@@H]1[C@@H](O)CCN1S(=O)(=O)c1cc2cc(F)ccc2o1` [Example 95, (2S,3S)-1-(5-fluorobenzofuran-2-yl)sulfonyl-3-hydroxy-N-[[2-[4-(trifluoromethyl)phenyl]-4-pyridyl]methyl]pyrrolidine-2-carboxamide] was run?
The IC50 was 5.4 nM.

How did the IC50 turn out when `O=C(NCc1cccc(Sc2ccc(C(F)(F)F)cc2)c1)[C@@H]1CCCN1S(=O)(=O)c1cc2ccccc2o1` [Example 321, (2S)-1-(benzofuran-2-ylsulfonyl)-N-[[3-[4-(trifluoromethyl)phenyl]sulfanylphenyl]methyl]pyrrolidine-2-carboxamide] was run?
The IC50 was 33 nM.

Which IC50 does the source give for `O=C(NCc1cc(-c2ccc(C(F)(F)F)cn2)ccn1)[C@@H]1C[C@H]2C[C@H]2N1S(=O)(=O)c1cc2cc(F)ccc2o1` [Example 258, (1R,3S,5R)-4-(5-fluorobenzofuran-2-yl)sulfonyl-N-[[4-[5-(trifluoromethyl)-2-pyridyl]-2-pyridyl]methyl]-4-azabicyclo[3.1.0]hexane-3-carboxamide] here?
Its IC50 is 1.9 nM.

`O=C(NCc1cc(-c2ccc(C(F)(F)F)cc2)ncn1)[C@@H]1[C@@H](O)CCN1S(=O)(=O)c1cc2ccccc2o1` [Example 226, (2S,3S)-1-(benzofuran-2-ylsulfonyl)-3-hydroxy-N-[[6-[4-(trifluoromethyl)-phenyl]pyrimidin-4-yl]methyl]pyrrolidine-2-carboxamide] was tested. Which IC50 did it give?
Its IC50 is 25 nM.

Which IC50 does the source give for `O=C(NCc1cc(-c2ccc(C(F)(F)F)cc2O)ccn1)[C@@H]1CCCN1S(=O)(=O)c1cc2cc(F)ccc2o1` [Example 280, (2S)-1-(5-fluorobenzofuran-2-yl)sulfonyl-N-[[4-[2-hydroxy-4-(trifluoromethyl)phenyl]-2-pyridyl]methyl]pyrrolidine-2-carboxamide] here?
The IC50 was 520 nM.

`O=C(NCc1ccnc(-c2ccc(C(F)(F)F)cn2)c1)[C@@H]1CCCN1S(=O)(=O)c1cc2ccccc2o1` [Example 178, (2S)-1-(benzofuran-2-ylsulfonyl)-N-[[2-[5-(trifluoromethyl)-2-pyridyl]-4-pyridyl]methyl]pyrrolidine-2-carboxamide] was tested. Which IC50 did it give?
Its IC50 is 46 nM.

For `O=C(NCc1cc(-c2ccc(C(F)(F)F)cn2)ccn1)[C@@H]1CCCN1S(=O)(=O)c1cc2cc(F)ccc2o1` [Example 223, (2S)-1-(5-fluorobenzofuran-2-yl)sulfonyl-N-[[4-[5-(trifluoromethyl)-2-pyridyl]-2-pyridyl]methyl]pyrrolidine-2-carboxamide], which IC50 is on record?
The IC50 was 0.88 nM.
